Like-named read-outs stand apart in the source and are kept apart here.
Assays:
[1] = Phase 1 Part 2: cerebrospinal fluid (CSF) pharmacokinetics after multiple BID doses; format: in vivo, human; settings: for Cmax / AUC / half-life / Tmax: human, oral, CSF; for AUC: read-out: AUC0-tau; for Tmax: median (min, max)
[2] = test system: patients with probable PSP Richardson's syndrome; experiment: Phase 2 clinical trial, dose extension (Example 7); format: in vivo, human; settings: 300 mg, 150 mg or 75 mg TID PO
Protocol: The study design of this Example 7 is analogous to the study described in Example 6, a randomized, multi-centre, double-blind, placebo-controlled trial to study the safety and tolerability of compound (I) in patients with probable PSP Richardson's syndrome. Approximately 40 patients (40 to 85 years of age, inclusive) are randomized in a 2:1:1:1 ratio to 300 mg or 150 mg or 75 mg or placebo TID PO, with or without food.

[3] = Phase 1 Part 2: multiple BID doses for 12 days, plasma pharmacokinetics; format: in vivo, human; settings: for AR (accumulation ratio, AUC0-tau at Day 12/AUC0-tau at Day 1) / concentration at 12 day / Cmax / Tmax / half-life / AUC: plasma; for concentration at 12 day / Cmax / Tmax / half-life / AUC: both sexes, human; for concentration at 12 day: in vivo, read-out: Cmin; for Cmax / Tmax / half-life / AUC: oral; for Tmax: median (min, max); for AUC: read-out: AUC0-tau
Protocol: The study was a single-centre, randomized, placebo-controlled single- and multiple ascending dose study in healthy male and female (no childbearing potential) volunteers aged 18-80 years. Study objectives were safety, tolerability, food effect and pharmacokinetics. Following identification of safe and tolerable single doses in healthy male subjects aged 18-55 years, separate cohorts were dosed to assess food effect. Furthermore, multiple-dose safety, tolerability, pharmacokinetics, CSF drug levels and pharmacodynamics were assessed in elderly (age 55-80 years) male or healthy non-child-bearing potential female volunteers.
Day 1: Twice a day (BID) dosing. Day 2: No dosing. Day 3-11: 9 days of BID dosing. Day 12: one dose in the morning.

[4] = test system: adults with PSP; experiment: Randomized, double-blind, placebo-controlled Phase 2 trial in PSP (Example 8); format: in vivo, human; settings: 75 mg, 150 mg or 300 mg TID PO, 72-week treatment
[5] = Compatibility studies and short-term stability studies of drug substance with excipients; format: physicochemical
Description: Compound (I) is a drug substance with suitable physical, biopharmaceutical, and chemical characteristics for development of an immediate release capsule formulation. […] The blend powder to be filled into the capsules contains common excipients: microcrystalline cellulose, croscarmellose sodium, colloidal silicon dioxide and magnesium stearate. All ingredients were used in concentrations typical for solid oral formulations. The selection of excipients, for the capsule powder, was based on compatibility studies and short-term stability studies. […] The final DP contains the following excipients for the tablet core: microcrystalline cellulose, povidone, croscarmellose sodium, copovidone, silica colloidal anhydrous and sodium stearyl fumarate. A water-based film coat made from hypromellose, macrogol, titanium dioxide and iron oxide was sprayed onto the core tablets. All ingredients were used in quantities typical for oral solid formulations. The selection of excipients was further backed-up by compatibility studies and short-term stability studies of binary mixtures for key ingredients.

[6] = test system: kainate-induced seizure rat model; settings: rats, daily oral gavage for 3 consecutive days
Protocol: Compound of formula (I) is evaluated in the kainate-induced seizure rat model. Sprague-Dawley rats are treated with intraperitoneal injection of kainate (10 mg/kg) to induce seizure or with saline as vehicle control. […] The onset of status epilepticus (SE) is defined as the time from kainate injection to the occurrence of continuous seizure activity (Racine score 4-5) over a period of 4 h. Four weeks following the administration of kainate, animals undergo EEG surgery for electrodes implantation at the surface of the dura mater. […] Then, the animals receive a daily administration (oral gavage) of compound formula (I) for 3 consecutive days during which, cerebral activity is monitored by EEG recording. Animals are finally sacrificed ninety-six hours (4 days) post-baseline.

[7] = test system: acute glaucoma-induced I/R injury; experiment: In vivo treatment efficacy on acute glaucoma induced ischemia-reperfusion (I/R) model; parameters: species or system Sprague-Dawley (SD) rats; settings: SD rats, oral, 7 days after I/R injury
Protocol: The efficacy of compound of formula (I) is evaluated in the acute glaucoma animal model. Eight-week-old male Sprague-Dawley (SD) rats weighing 250 to 300 g are housed in a temperature- and humidity-controlled animal room under a 12-hour light/12-hour dark cycle, with food and water provided ad libitum. Before any experiment, animals are allowed for one week of acclimatization. The SD rats are randomly allocated to control group and/or treatment groups. Compound of formula (I) is administrated by oral (gavage) route. Two protocols are considered, where the treatment is initiated 24 hours before or 1 hour after the induction of acute glaucoma-induced I/R injury.
To induce I/R injury, a general anesthesia is induced via i.p. injection of a mixture of 50 mg/kg of ketamine and 2 mg/kg of xylazine. Corneal analgesia is administered using a drop of topical 0.5% proparacaine hydrochloride ophthalmic solution, and pupillary dilatation is maintained with 0.5% tropicamide and 0.5% phenylephrine. After analgesia and dilation of the pupil, the anterior chamber of the left eye is cannulated with a 30-gauge needle connected to a saline reservoir at 150 cm above the eye, leading to a high intraocular pressure (IOP) of 110 mm Hg. The presence of retinal ischemia is examined by the fundus. The cannulation is lasting 60 minutes. After removing the infusion needle from the anterior chamber, the IOP returns to normal. Antibiotic ophthalmic gel with tobramycin is topically applied to the eye before and after the procedure. The rats are sacrificed 7 days after I/R injury to observe the long-term effect of the compound of formula (I) treatment. After collection, the thickness of the retinas is examined by histological staining (Mayer P, (1896), Mitt. zool. Stn. Neapel., 12, 303). The number of retinal ganglion cells is also quantified by immunohistochemistry. Finally, the function of the retina is also evaluated 7 days after I/R injury by electroretinography (ERG).

[8] = test system: hTauP301L-Tg mouse model of tauopathy; experiment: In vivo effect on the hTauP301L-Tg mouse model of tauopathy; settings: hTauP301L-Tg mice
Description: Concomitant to the pathology, these mice progressively develop motoric deficits like clasping behaviour accompanied by a diminution of general mobility, and die prematurely at the age of 8-11 months (reMYND unpublished data, Terwel et al., 2005).

[9] = both sexes, 250 mg BID, Day 12, elderly subjects, arithmetic mean
[10] = both sexes, 500 mg BID, Day 12, elderly subjects, arithmetic mean
[11] = 100 mg BID, Day 12, elderly subjects, N=1
[12] = 100 mg BID, Day 12, elderly subjects, arithmetic mean
[13] = 250 mg BID, Day 12, elderly subjects, arithmetic mean
[14] = 500 mg BID, Day 12, elderly subjects, arithmetic mean

In the case of `CC(=O)Nc1nnc(N2CCN([C@@H](C)c3ccc4c(c3)OCO4)CC2)s1` [Compound (I)], the “blood-brain-barrier penetration (detection in CSF)” value ([1]; Day 12 after multiple doses) is reported as “penetrated through the blood-brain-barrier”, the Cmax [1, 9] is reported as 92.5 ng/mL and the AUC [1, 9] is reported as 485 ng·h/mL. For the same compound, the half-life ([1]; both sexes, 250 mg BID, Day 12, elderly subjects, arithmetic mean, read-out: t1/2 (converted)) was 618 min, the Tmax ([1]; both sexes, 250 mg BID, Day 12, elderly subjects) was 3 h and the Cmax [1, 10] was 282 ng/mL. For the same compound, the AUC [1, 10] was 1400 ng·h/mL, the half-life ([1]; both sexes, 500 mg BID, Day 12, elderly subjects, arithmetic mean, read-out: t1/2 (converted)) was 648 min and the Tmax ([1]; both sexes, 500 mg BID, Day 12, elderly subjects) was 2.02 h. The half-life ([1]; both sexes, 100 to 500 mg BID, read-out: terminal half-life (t½), range of means) was 234 to 642 min, the Cmax [1, 11] was 46.7 ng/mL and the AUC [1, 11] was 236 ng·h/mL. For the same compound, the half-life ([1]; 100 mg BID, Day 12, elderly subjects, N=1, read-out: t1/2 (converted)) was 347 min, the Tmax [1, 11] was 4.03 h and the “efficacy, safety and tolerability of the preferred dosage regimen” value [2] was “especially effective, safe and well tolerated”. The “AR (accumulation ratio, AUC0-tau at Day 12/AUC0-tau at Day 1)” value [3, 12] was 1.35, the “AR (accumulation ratio, AUC0-tau at Day 12/AUC0-tau at Day 1)” value [3, 13] was 1.36 and the “AR (accumulation ratio, AUC0-tau at Day 12/AUC0-tau at Day 1)” value [3, 14] was 1.25. For the same compound, the “dose proportionality of Cmax, AUC0-tau and AUC12-24” value ([3]; Day 1, BID 100 mg to BID 500 mg) was “Dose proportionality was observed”, the “dose proportionality of Cmax, AUC0-tau and AUC0-48” value ([3]; Day 12, BID 100 mg to BID 500 mg) was “Dose proportionality was observed” and the concentration at 12 day [3, 12] was 84 ng/mL. For the same compound, the concentration at 12 day [3, 13] was 308 ng/mL, the concentration at 12 day [3, 14] was 743 ng/mL and the Cmax ([3]; 100 mg, 100 mg BID, Day 1 (first dose), elderly subjects, arithmetic mean) was 1450 ng/mL. For the same compound, the Tmax ([3]; 100 mg, 100 mg BID, Day 1 (first dose), elderly subjects) was 0.75 h, the half-life ([3]; 100 mg, 100 mg BID, Day 1, elderly subjects, arithmetic mean, read-out: t1/2 (converted)) was 234 min and the AUC ([3]; 100 mg, 100 mg BID, Day 1, tau 12 h, elderly subjects, arithmetic mean) was 4120 ng·h/mL. The Cmax ([3]; 100 mg, 100 mg BID, Day 12, elderly subjects, arithmetic mean) was 1340 ng/mL, the half-life ([3]; 100 mg, 100 mg BID, Day 12, elderly subjects, arithmetic mean, read-out: t1/2 (converted)) was 470 min and the Tmax ([3]; 100 mg, 100 mg BID, Day 12, elderly subjects) was 2.25 h. For the same compound, the AUC ([3]; 100 mg, 100 mg BID, Day 12, tau 12 h, elderly subjects, arithmetic mean) was 5440 ng·h/mL, the Cmax ([3]; 250 mg, 250 mg BID, Day 1 (first dose), elderly subjects, arithmetic mean) was 3630 ng/mL and the Tmax ([3]; 250 mg, 250 mg BID, Day 1 (first dose), elderly subjects) was 0.5 h. The half-life ([3]; 250 mg, 250 mg BID, Day 1, elderly subjects, arithmetic mean, read-out: t1/2 (converted)) was 284 min, the AUC ([3]; 250 mg, 250 mg BID, Day 1, tau 12 h, elderly subjects, arithmetic mean) was 10700 ng·h/mL and the Cmax ([3]; 250 mg, 250 mg BID, Day 12, elderly subjects, arithmetic mean) was 3740 ng/mL. For the same compound, the half-life ([3]; 250 mg, 250 mg BID, Day 12, elderly subjects, arithmetic mean, read-out: t1/2 (converted)) was 612 min, the Tmax ([3]; 250 mg, 250 mg BID, Day 12, elderly subjects) was 1 h and the AUC ([3]; 250 mg, 250 mg BID, Day 12, tau 12 h, elderly subjects, arithmetic mean) was 14300 ng·h/mL. It also gave a Cmax ([3]; 500 mg, 500 mg BID, Day 1 (first dose), elderly subjects, arithmetic mean) of 6440 ng/mL, a Tmax ([3]; 500 mg, 500 mg BID, Day 1 (first dose), elderly subjects) of 1.02 h and a half-life ([3]; 500 mg, 500 mg BID, Day 1, elderly subjects, N=1, read-out: t1/2 (converted)) of 371 min. The AUC ([3]; 500 mg, 500 mg BID, Day 1, tau 12 h, elderly subjects, arithmetic mean) was 24300 ng·h/mL, the Cmax ([3]; 500 mg, 500 mg BID, Day 12, elderly subjects, arithmetic mean) was 6670 ng/mL and the half-life ([3]; 500 mg, 500 mg BID, Day 12, elderly subjects, arithmetic mean, read-out: t1/2 (converted)) was 642 min. It also gave a Tmax ([3]; 500 mg, 500 mg BID, Day 12, elderly subjects) of 1.5 h, an AUC ([3]; 500 mg, 500 mg BID, Day 12, tau 12 h, elderly subjects, arithmetic mean) of 30200 ng·h/mL and a half-life ([3]; 100 to 500 mg BID, single dose and multiple dose conditions, read-out: terminal half-life (t½), range of means) of 234 to 642 min. The “efficacy, safety and tolerability of the preferred dosage regimen” value [4] was “especially effective, safe and well tolerated”, the “stability of the drug substance” value [5] was “suitably stable” and the compatibility with excipients ([5]; capsule powder: microcrystalline cellulose, croscarmellose sodium, colloidal silicon dioxide, magnesium stearate) was “no incompatibility with the chosen excipients”. For the same compound, the “epileptic activity by EEG (number of seizures, seizure duration, interictal spike frequency)” value [6] was “reducing the epileptic activity”, the “number of retinal ganglion cells by immunohistochemistry” value [7] was “increase number of retinal ganglion cells” and the “retinal function by electroretinography” value [7] was “improving retinal function”. For the same compound, the “thickness of the retina by H&E staining” value [7] was “mitigating the reduction of thickness of the retina”, the “extent of neuronal pathology” value [8] was “diminishing the extent of neuronal pathology” and the “motoric function (clasping behaviour, beam walk)” value [8] was “improvement in motoric function”. For the same compound, the survival rate [8] was “significant benefit in survival rate”.
